# Experimental data published in patent publication US20060172019A1 (priority 2003, published 2006).
# Entries after “also recorded” stand apart in the source; their conditions may differ. Where two headings read alike, the source gives them in different places.
# Key:
# CB1 receptor [1] = molecular target: T1, CB1 receptor (Homo sapiens, UniProt P21554); conditions: cited from earlier work
# CB1 receptor [2] = molecular target: T1, CB1 receptor; conditions: read-out: Ki (nM) CB1, cited from earlier work
# [3] = system: J774 murine macrophage cells; assay: Alamar Blue J774 murine macrophage viability assay; type: cell-based; conditions: for IC50: Mus musculus; for effect on J774 survival: data not shown
# Protocol: J774 cells were plated at 10^4 cells per well in 150 μL αMEM (α Modified Eagle Medium) in 96-well plates and grown overnight. The next day, compounds were added to the cultures, and culture was continued for another 72 hours.
# Alamar Blue is an oxidation-reduction sensitive indicator. The dye itself is in the oxidised state, which is blue and non-fluorescent. The dye can accept electrons from reducing species, such as NADPH and FADH, to form a reduced dye species, which is red and fluorescent. Thus the transformation from oxidised form to reduced form can be measured by fluorimetric or colourimetric means. For fluorescence measurements, 530-560 nm excitation and 590 nm emission wavelengths are typically used. For colourimetric measurements, absorbance is measured at 570 nm (reduced form) and 600 nm (oxidised form) and a simple calculation performed to determine the relative quantities of the two species.
# A high ratio of the reducing species, NADPH and FADH, to the corresponding oxidised species, NADP and FAD, is an indicator that cells are proliferating and viable. A low ratio indicates cells that are quiescent or non-viable.
# Briefly, Alamar Blue (Biosource International) was added undiluted to the each well (1:10 v/v, 15 μL). The plate was incubated at 37° C. for 3-4 hours and the fluorescence was measured at 570 nm, with a 25 nm bandwidth. A high reading indicated cells with normal viability, and a low reading indicates cells that have been damaged and are no longer proliferating normally.
# In general, compounds studied were made up as 100 mM solutions in DMSO. These stock solutions were then diluted 100 or 1000× in culture medium (αMEM).
# CB2 receptor [4] = molecular target: T2, CB2 receptor (Homo sapiens, UniProt P34972); conditions: cited from earlier work; for CB receptor function (CB2): Table 2; for Classification CB2: Table 1
# T2 sequence (P34972 whole entry): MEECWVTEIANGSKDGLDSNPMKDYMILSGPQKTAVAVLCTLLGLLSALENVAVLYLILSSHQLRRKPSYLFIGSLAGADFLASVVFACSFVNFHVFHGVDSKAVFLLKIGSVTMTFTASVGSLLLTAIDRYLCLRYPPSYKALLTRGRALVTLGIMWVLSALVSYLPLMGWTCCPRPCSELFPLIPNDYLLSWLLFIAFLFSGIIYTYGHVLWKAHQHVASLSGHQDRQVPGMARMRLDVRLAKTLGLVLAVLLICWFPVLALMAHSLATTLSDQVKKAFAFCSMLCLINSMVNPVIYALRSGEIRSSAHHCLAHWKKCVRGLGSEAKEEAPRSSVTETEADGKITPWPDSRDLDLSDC
# mouse osteoblasts = assay: Mouse osteoblast culture (Alamar Blue); type: cell-based; conditions: 72 hours, n=3
# Protocol: Osteoblasts were isolated as described above and plated at 10^4 cells/well in 96-well plates in 100 μL of αMEM supplemented with 10% FCS and antibiotics. Test substances were added after 24 hours and left for 72 hours. Cell viability was assessed using the Alamar Blue assay.
# CB2 receptor [5] = molecular target: T2, CB2 receptor
# [6] = system: ovariectomy induced bone loss; assay: Ovariectomy induced bone loss, dual energy x-ray absorptiometry; type: in vivo, C57/BL6 mice; conditions: 6 mg/kg, OVX operation, DEXA
# Protocol: Animals. Female 9 week-old C57/BL6 mice. Animals were housed in a designated animal facility and routinely maintained on a 12 h:12 h light:dark cycle and given ad libitum access to food and water.
# Ovariectomy induced bone loss. Bilateral ovariectomy (Ovx) was performed under general anaesthesia. Sham ovariectomy (Sham) was similarly performed but with externalisation and replacement of the ovaries. Animals were given a daily injection of (a) candidate compound (e.g., 6 mg/kg) in vehicle (corn oil), or (b) vehicle (corn oil). After 21 days, the animals were killed, and the tibial bones were dissected and used for bone mineral density measurements and histomorphometric analysis (see below).
# Whole body, spine and femoral bone mineral density (BMD) and bone mineral content (BMC) were determined using a Piximus small animal DEXA scanner at the start and the end of the experiment. Daily quality assurance measurements were performed using a phantom according to the manufacturer's instructions.
# [7] = system: ovariectomy induced bone loss; assay: Ovariectomy induced bone loss, peripheral quantitative computed tomography; type: in vivo, C57/BL6 mice; conditions: for ovariectomy-induced bone loss in a mouse model: in vivo
# osteoclasts = assay: cells; type: cell-based, mice; conditions: Mus musculus, Osteoclast; TRAcP MNC and resorbed area, n=3; read-out: IC50, inhibition of osteoclast function and bone resorption
# Protocol: Osteoblasts were isolated from the calvarial bones of 2-day-old mice by sequential collagenase digestion (type I collagenase, Sigma) and cultured in αMEM supplemented with 10% FCS and penicillin and streptomycin at 37° C. in 5% CO2. […] The resulting bone marrow cells were washed with PBS and resuspended in culture medium.
# Osteoblasts and bone marrow cells were plated at 10^4 cells/well and 2×10^5 cells/well, respectively, in 96-well plates in 150 μL of αMEM supplemented with 10% FCS, antibiotics and 10 nM 1,25-dihydroxyvitamin D3. Test substances were added on day 7 and the cultures were terminated on day 10. At the end of the culture period, osteoclasts were identified by TRAcP staining and resorption pits were quantified by reflected light microscopy, as described above.
# rabbit osteoclasts = assay: Rabbit osteoclast culture; type: cell-based
# Protocol: Osteoclast survival and activity was studied in cultures of rabbit osteoclasts. Osteoclasts were isolated from the long bones of 2-3 day-old rabbits as described previously (see, e.g., Coxon et al., 2000), plated on dentine slices and cultured in αMEM supplemented with 10% FCS and penicillin and streptomycin at 37° C. in 5% CO2 for 48 hours in the presence or absence of test compounds.
# [8] = J774, Alamar Blue, 72 hours, n=3, read-out: IC50, J774 survival
# [9] = J774 viability assay, Table 2, read-out: IC50 in J774 cells
# [10] = Table 1; read-out: Ki (nM) CB2; cited from earlier work
# T1 sequence (P21554 whole entry): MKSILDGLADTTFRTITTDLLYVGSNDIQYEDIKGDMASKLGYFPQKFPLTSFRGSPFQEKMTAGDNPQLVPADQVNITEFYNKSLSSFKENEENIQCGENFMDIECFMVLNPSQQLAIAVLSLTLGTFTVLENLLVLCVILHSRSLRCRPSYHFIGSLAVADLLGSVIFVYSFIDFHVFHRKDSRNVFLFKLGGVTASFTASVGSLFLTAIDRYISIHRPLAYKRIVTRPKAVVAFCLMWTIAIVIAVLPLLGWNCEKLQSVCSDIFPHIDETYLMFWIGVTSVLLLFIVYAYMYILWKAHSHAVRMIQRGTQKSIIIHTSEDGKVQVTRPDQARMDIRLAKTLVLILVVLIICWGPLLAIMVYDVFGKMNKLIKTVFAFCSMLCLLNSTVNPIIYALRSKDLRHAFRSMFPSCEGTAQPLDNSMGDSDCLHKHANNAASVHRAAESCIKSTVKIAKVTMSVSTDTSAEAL
smiles,measurement,setting,value
Cc1c(C(=O)NN2CCOCC2)nn(-c2ccc(Cl)cc2Cl)c1-c1ccc(I)cc1 [AM281],Classification CB1,CB1 receptor [1]; Table 1,Inverse agonist
same,Ki,CB1 receptor [2]; Table 1,12 nM
"Cc1ccc(Cn2nc(C(=O)NN3CCCCC3)cc2-c2ccc(Cl)c(C)c2)cc1 [piperidinyl, 5-(4-Chloro-3-methyl-phenyl)-1-(4-methyl-benzyl)-1H-pyrazole-3-carboxylic acid piperidin-1-yl amide]",IC50,[3]; [8],~15 µM
CCCCCCC(C)(C)c1ccc([C@@H]2C[C@H](O)CC[C@H]2CCCO)c(O)c1 [CP55940],J774 viability (summary in words),[3],do not affect
same,IC50 in J774 cells,"[3]; J774 viability assay, Table 2",inactive
same,effect on J774 survival,[3]; concentrations of up to 100 μM,did not affect
same,CB receptor function (CB1),CB1 receptor [1],CB1 agonist
same,CB receptor function (CB2),CB2 receptor [4],CB2 agonist
"CCCCCOc1c(OC)ccc2cc(C(=O)NCc3ccc4c(c3)OCO4)c(=O)[nH]c12 [JTE-907, 7-Methoxy-2-oxo-8-pentyloxy-1,2-dihydro-quinoline-3-carboxylic acid (benzo[1,3]dioxol-5-yl-methyl)-amide]",IC50,[3]; [8],~25 µM
same,IC50,[3]; [9],25 µM
same,Classification CB1,CB1 receptor [1],Inactive
same,Ki,CB1 receptor [2],684 nM
same,Classification CB2,CB2 receptor [4],Inverse agonist
same,CB receptor function (CB2),CB2 receptor [4],CB2 inverse agonist
same,osteoblast survival,mouse osteoblasts,little activity
"CCCCC/C=C\C/C=C\C/C=C\C/C=C\CCCC(=O)NCCO [Anandamide, arachidonyl ethanolamide]",J774 viability (summary in words),[3],inhibits
same,IC50,[3]; [8],~40 µM
same,IC50,[3]; [9],40 µM
same,effect on J774 survival,[3]; low concentrations,no effect
same,Classification CB2,CB2 receptor [4],Partial agonist
same,CB receptor function (CB2),CB2 receptor [4],CB2 partial agonist/; also recorded: antagonist
CCCC(C)(C)c1ccc2c(c1)OC(C)(C)[C@@H]1CC=C(C)C[C@@H]21 [JWH 133],J774 viability (summary in words),[3],does not affect
same,IC50 in J774 cells,"[3]; J774 viability assay, Table 2",inactive
same,effect on J774 survival,[3]; concentrations of up to 20 μM,did not affect
same,CB receptor function (CB2),CB2 receptor [4],CB2-selective agonist
COc1ccc(-c2oc3cc(OC)ccc3c2C(=O)c2ccc(C#N)cc2)cc1 [LY320135],Classification CB1,CB1 receptor [1]; Table 1,Inverse agonist
same,Classification CB2,CB2 receptor [4],Inactive
"CCCCCc1cc(O)c2c(c1)OC(C)(C)[C@@H]1CCC(C)=C[C@@H]21 [Δ^9THC, Δ^9-tetrahydrocannabinol]",Classification CB2,CB2 receptor [4],Neutral antagonist
"COC(=O)c1cc(-c2ccc(Cl)c(C)c2)n(Cc2ccc(C)cc2)n1 [methyl, 5-(4-Chloro-3-methyl-phenyl)-1-(4-methyl-benzyl)-1H-pyrazole-3-carboxylic acid methyl ester]",IC50,[3]; [8],~9 µM
Cc1c(C(=O)NN2CCCCC2)nn(-c2ccc(Cl)cc2Cl)c1-c1ccc(Cl)cc1 [SR141716A],Classification CB2,CB2 receptor [4],Inverse agonist
"CCCCCc1cc(O)c2c(c1)OC(C)(C)c1ccc(C)cc1-2 [Cannabinol, cannabinol]",Ki,CB2 receptor [5]; read-out: Ki (nM) CB2; Table 1; cited from earlier work,580 nM
same,Classification CB1,CB1 receptor [1],Neutral antagonist
same,Ki,CB1 receptor [2],115 nM
same,Classification CB2,CB2 receptor [4],Inverse agonist
CC1=CCC2[C@@H](C1)c1c(O)cc(CC#CCCCN=[N+]=[N-])cc1OC2(C)C (stereo partly drawn) [O1184],Ki,CB2 receptor [5]; [10],7.4 nM
same,Classification CB1,CB1 receptor [1]; Table 1,Partial agonist
same,Ki,CB1 receptor [2]; Table 1,5.2 nM
same,Classification CB2,CB2 receptor [4],Inverse agonist
CC1=CCC2[C@@H](C1)c1c(O)cc(C/C=C\CCCN=[N+]=[N-])cc1OC2(C)C (stereo partly drawn) [O1238],Ki,CB2 receptor [5]; [10],7.8 nM
same,Classification CB1,CB1 receptor [1]; Table 1,Partial agonist
same,Ki,CB1 receptor [2]; Table 1,3.5 nM
same,Classification CB2,CB2 receptor [4],Partial agonist
"Cc1ccc(Cn2nc(C(=O)NC3C4(C)CCC(C4)C3(C)C)cc2-c2ccc(Cl)c(C)c2)cc1 [SR144528, 5-(4-Chloro-3-methyl-phenyl)-1-(4-methyl-benzyl)-1H-pyrazole-3-carboxylic acid ((1S)-1,3,3-trimethylbicyclo[2.2.1]hept-2endo,exo-yl)-amide]",ovariectomy-induced bone loss at the femoral site (femoral bone mineral content and density),[6],very effective at reversing the bone loss
same,IC50,[3]; [8],~9 µM
same,IC50,[3]; [9],9 µM
same,Classification CB1,CB1 receptor [1],Inverse agonist
same,osteoblast survival,mouse osteoblasts,little activity
same,"ovariectomy-induced bone loss, trabecular density","[7]; 6 mg/kg daily injection, 21 days, pQCT, tibia",very effective at reversing the bone loss
same,ovariectomy-induced bone loss in a mouse model,[7],completely reverse
same,IC50,osteoclasts,~5 µM
same,survival and resorptive activity of authentic rabbit osteoclasts,rabbit osteoclasts,inhibit
Cc1c(C(=O)NN2CCCCC2)nn(-c2ccc(Cl)cc2Cl)c1-c1ccc(I)cc1 [AM251],J774 viability (summary in words),[3],inhibit
same,CB receptor function (CB1),CB1 receptor [1],CB1 inverse agonist
same,Classification CB1,CB1 receptor [1],Inverse agonist
same,ovariectomy-induced bone loss in a mouse model,[7],completely reverse
same,bone resorption (resorbed area),"rabbit osteoclasts; 10 μM (p<0.03) and 20 μM (p<0.01), 48 hours",reduced
COc1ccc(C(=O)c2c(C)n(CCN3CCOCC3)c3cc(I)ccc23)cc1 [AM630],J774 viability (summary in words),[3],inhibit
same,IC50,[3]; [8],~20 µM
same,IC50,[3]; [9],20 µM
same,Classification CB2,CB2 receptor [4],Inverse agonist
same,CB receptor function (CB2),CB2 receptor [4],CB2 inverse agonist
"Cc1ccc(Cn2nc(C(=O)NCc3ccc4c(c3)OCO4)cc2-c2ccc(Cl)c(C)c2)cc1 [benzodioxo, 5-(4-Chloro-3-methyl-phenyl)-1-(4-methyl-benzyl)-1H-pyrazole-3-carboxylic acid (benzo[1,3]dioxol-5-yl-methyl) amide]",IC50,[3]; [8],~15 µM
Cc1c(C(=O)c2cccc3ccccc23)c2cccc3c2n1[C@H](CN1CCOCC1)CO3 [WIN55212],J774 viability (summary in words),[3],do not affect
same,IC50 in J774 cells,"[3]; J774 viability assay, Table 2",inactive
same,effect on J774 survival,[3]; concentrations of up to 100 μM,did not affect
same,CB receptor function (CB2),CB2 receptor [4],CB2 agonist
